The values below come from patent publication US20070123546A1, “2-amino-7,8-dihydro-6H-pyrido[4,3-d]pyrimidin-5-ones” (Chiron Corporation, priority 2005, published 2007).

This experiment concerns the target His-tagged N-terminal ATP binding domain (amino acid residues 9-236) of HSP90α (Homo sapiens, UniProt P07900). In words: HSP90 inhibitor binding potency: TRF competition binding assay. The following applies: Table 4; competition with biotinylated radicicol. The method in brief:
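His-tagged HSP90α N-domain (residues 9-236) incubated 2 h at room temperature with biotinylated radicicol and increasing compound in 50 mM HEPES, 6 mM MgCl2, 20 mM KCl, 0.1% BSA. Bound tracer captured on streptavidin plates, detected with europium anti-His antibody by time-resolved fluorescence; IC50 derived.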

On to `Cc1ccc(-c2cc(F)ccc2[C@H]2Cc3nc(N)ncc3C(=O)N2)cc1` [Compound 182, (R)-2-Amino-7-(5-fluoro-4′-methyl-biphenyl-2-yl)-7,8-dihydro-6H-pyrido[4,3-d]pyrimidin-5-one], for which the IC50 is under 10 µM.

For the compound `Cc1cc(F)ccc1-c1cc(F)ccc1[C@H]1Cc2nc(N)ncc2C(=O)N1` [Compound 183, (R)-2-Amino-7-(5,4′-difluoro-2′-methyl-biphenyl-2-yl)-7,8-fihydro-6H-pyrido[4,3-d]pyrimidm-5-one], the IC50 was under 10 µM.

On to `Cc1nc(N)nc2c1C(=O)N[C@@H](c1ccccc1Br)C2` [Compound 184, (R)-2-Amino-7-(2-bromo-phenyl)-4-methyl-7,8-dihydro-6H-pyrido[4,3-d]pyrimidin-5-one], for which the IC50 is at least 10 µM. On to `COc1cnc(-c2cc(F)ccc2[C@H]2Cc3nc(N)nc(C)c3C(=O)N2)nc1OC` [Compound 185, (R)-2-Amino-7-[2-(4,5-dimethoxy-pyrimidin-2-yl)-4-fluoro-phenyl]-4-methyl-7,8-dihydro-6H-pyrido[4,3-d]pyrimidin-5-one], for which the IC50 is under 10 µM. With `COc1cncc(-c2scnc2[C@H]2Cc3nc(N)nc(C)c3C(=O)N2)n1` [Compound 186, (R)-2-Amino-7-[5-(6-methoxy-pyrazin-2-yl)-thiazol-4-yl]-4-methyl-7,8-dihydro-6H-pyrido[4,3-d]pyrimidin-5-one], the concentration for half-maximal inhibition (IC50) is under 10 µM.

`CCOc1cccc(-c2cc(F)ccc2[C@H]2Cc3nc(N)nc(C)c3C(=O)N2)n1` [Compound 187, (R)-2-Amino-7-[2-(6-ethoxy-pyridin-2-yl)-4-fluoro-phenyl]-4-methyl-7,8-dihydro-6H-pyrido[4,3-d]pyrimidin-5-one] came in with an IC50 of under 10 µM. Compound `COc1nc(-c2ccccc2[C@H]2Cc3nc(N)nc(C)c3C(=O)N2)cs1` [Compound 188, (R)-2-Amino-7-[2-(2-methoxy-thiazol-4-yl)-phenyl]-4-methyl-7,8-dihydro-6H-pyrido[4,3-d]pyrimidin-5-one] gave an IC50 of under 10 µM.

As for `COc1ncc(-c2ccccc2[C@H]2Cc3nc(N)nc(C)c3C(=O)N2)nc1OC` [Compound 189, (R)-2-Amino-7-[2-(5,6-dimethoxy-pyrazin-2-yl)-phenyl]-4-methyl-7,8-dihydro-6H-pyrido[4,3-d]pyrimidin-5-one], the IC50 was under 10 µM. `COc1nc(-c2cc(F)ccc2[C@H]2Cc3nc(N)nc(C)c3C(=O)N2)ccc1N` [Compound 190, (R)-2-Amino-7-[2-(5-amino-6-methoxy-pyridin-2-yl)-4-fluoro-phenyl]-4-methyl-7,8-dihydro-6H-pyrido[4,3-d]pyrimidin-5-o[…]ne]: the IC50 was under 10 µM.

Compound `Nc1ncc2c(n1)C[C@H](c1ccc(F)cc1-c1cccnc1)NC2=O` [Compound 191, (R)-2-Amino-7-(4-fluoro-2-pyridin-3-yl-phenyl)-7,8-dihydro-6H-pyrido[4,3-d]pyrimidin-5-one] gave an IC50 of under 10 µM. In turn, `COc1ncc(-c2cc(F)ccc2[C@H]2Cc3nc(N)ncc3C(=O)N2)c(OC)n1` [Compound 192, (R)-2-Amino-7-[2-(2,4-dimethoxy-pyrimidin-5-yl)-4-fluoro-phenyl]-7,8-dihydro-6H-pyrido[4,3-d]pyrimidin-5-one] had an IC50 of at least 10 µM. The compound `CCOc1ccnc(-c2cc(F)ccc2[C@H]2Cc3nc(N)nc(C)c3C(=O)N2)n1` [Compound 193, (R)-2-Amino-7-[2-(4-ethoxy-pyrimidin-2-yl)-4-fluoro-phenyl]-4-methyl-7,8-dihydro-6H-pyrido[4,3-d]pyrimidin-5-one] yielded a half-inhibitory concentration (IC50) of under 10 µM.

For `COc1cncc(-c2ccccc2[C@H]2Cc3nc(N)nc(C)c3C(=O)N2)n1` [Compound 194, (R)-2-Amino-7-[2-(6-methoxy-pyrazin-2-yl)-phenyl]-4-methyl-7,8-dihydro-6H-pyrido[4,3-d]pyrimidin-5-one], the IC50 is under 10 µM. Next, `COc1ccnc(-c2cc(F)ccc2[C@H]2Cc3nc(N)nc(C)c3C(=O)N2)n1` [Compound 195, (R)-2-Amino-7-[4-fluoro-2-(4-methoxy-pyrimidin-2-yl)-phenyl]-4-methyl-7,8-dihydro-6H-pyrido[4,3-d]pyrimidin-5-one]: under 10 µM.
